Source: ChEMBL document CHEMBL3243932, “Potential antiinflammatory compounds. 3. Compounds derived from acenaphthene and indan” (J Med Chem, 1979)
Calls of active or inactive are those of the source. The rule behind the calls is not given here.

Key:
Rattus norvegicus [1] = assay: Antiinflammatory activity in rat assessed as reduction of carrageenan-induced foot edema at 100 mg/kg, po administered as two doses; format: functional
[2] = Acute toxicity in po dosed mouse; format: organism-based; conditions: in vivo
Rattus norvegicus [3] = assay: Antiinflammatory activity in po dosed rat assessed as reduction of carrageenan-induced foot edema administered as two doses; format: functional, organism-based
Rattus norvegicus [4] = assay: Antiinflammatory activity against rat adjuvant arthritis model assessed as reduction of swelling in non-injected foot at 50 mg/kg, po administered for 16 days; format: functional; conditions: 384 h
Rattus norvegicus [5] = assay: Antiinflammatory activity in rat assessed as reduction of carrageenan-induced foot edema at 25 mg/kg, po administered as two doses; format: functional
Rattus norvegicus [6] = assay: Antiinflammatory activity in rat assessed as reduction of carrageenan-induced foot edema at 50 mg/kg, po administered as two doses; format: functional
Rattus norvegicus [7] = assay: Antiinflammatory activity against rat adjuvant arthritis model assessed as reduction of swelling in non-injected foot at 100 mg/kg, po administered for 16 days; format: functional; conditions: 384 h
Rattus norvegicus [8] = assay: Antiinflammatory activity against rat adjuvant arthritis model assessed as reduction of swelling in non-injected foot at 33 mg/kg, po administered for 16 days; format: functional; conditions: 384 h
Rattus norvegicus [9] = assay: Antiinflammatory activity against rat adjuvant arthritis model assessed as reduction of swelling in non-injected foot at 1 mg/kg, po administered for 16 days; format: functional; conditions: 384 h

Compound | inhibition in vivo at 100 mg/kg (Rattus norvegicus [1]) [%] | LD50 [2] [mg/kg] | inhibition in vivo at 100 mg/kg (Rattus norvegicus [7]) [%] | other results
O=C(O)CC1CC(c2ccccc2)c2ccccc21 (configuration not stated) | 0 | 1600 |  | 
O=C(O)CCc1ccc(CC(=O)O)cc1 |  |  |  | inhibition (Rattus norvegicus [3]): inactive
CC1CCc2cc(-c3ccccc3)ccc21 (configuration not stated) | 35 | 1600 |  | inhibition in vivo at 50 mg/kg (Rattus norvegicus [4]): 32%
O=C(O)Cc1ccc2c(c1)C(=O)CC2 | 0 | 1600 |  | 
O=C(O)CCC1CC(c2ccccc2)c2ccccc21 (configuration not stated) |  | 300 |  | inhibition in vivo at 25 mg/kg (Rattus norvegicus [5]): 0%
O=C([O-])Cc1ccc2c(c1)CCC2C1CCCCC1.[Na+] (configuration not stated) | 28 | 1200 |  | 
C[C@]12CCC(=O)C=C1CC[C@@H]1[C@@H]2[C@@H](O)C[C@@]2(C)[C@H]1CC[C@]2(O)C(=O)CO [HYDROCORTISONE] |  |  |  | inhibition in vivo at 50 mg/kg (Rattus norvegicus [6]): 51%
O=C(O)Cc1ccc2c(c1)C(=O)/C(=C/c1ccccc1)C2 | 26 | 1600 | 25 | 
CC(C(=O)O)c1ccc2c(c1)C(=O)/C(=C/c1ccc(Cl)cc1)C2 (configuration not stated) |  |  | 53 | 
CC(C(=O)O)c1ccc2c3c(cccc13)C(c1ccccc1)C2 (configuration not stated) | 44 | 1600 |  | inhibition in vivo at 50 mg/kg (Rattus norvegicus [4]): 50%
CC1CC(=O)c2cc(-c3ccccc3)ccc21 (configuration not stated) | 7 | 1600 |  | 
O=C(O)Cc1ccc2c(c1)C(=O)/C(=C/c1ccc(Cl)cc1)C2 | 0 | 1600 | 43 | 
C/C=C/C(=O)c1ccc(-c2ccccc2)cc1 |  |  |  | inhibition (Rattus norvegicus [3]): inactive
CCCCC1C(=O)N(c2ccccc2)N(c2ccccc2)C1=O [PHENYLBUTAZONE] |  |  |  | inhibition in vivo at 50 mg/kg (Rattus norvegicus [6]): 30%; inhibition in vivo at 33 mg/kg (Rattus norvegicus [8]): 42%; inhibition in vivo at 50 mg/kg (Rattus norvegicus [4]): 50%
O=C(O)Cc1ccc2c(c1)C(=O)CC2C1CCCCC1 (configuration not stated) | 8 | 1200 |  | 
COc1ccc2c(c1)c(CC(=O)O)c(C)n2C(=O)c1ccc(Cl)cc1 [INDOMETHACIN] |  |  |  | inhibition in vivo at 1 mg/kg (Rattus norvegicus [9]): 57%
O=C(O)Cc1ccc2c3c(cccc13)C(c1ccccc1)C2 (configuration not stated) | 53 | 400 | 0 | 
O=C1CC(c2ccccc2)c2ccccc21 (configuration not stated) | 48 | 1600 | 36 | 
O=C(O)Cc1ccc(C(CC(=O)O)c2ccccc2)cc1 (configuration not stated) |  |  |  | inhibition (Rattus norvegicus [3]): inactive
O=C(O)Cc1ccc(C2CC(=O)c3ccccc32)cc1 (configuration not stated) | 36 | 1600 | 52 | 
